Experimental data from patent US20060178382A1, “Chinazoline derivatives as aurora kinase inhibitors” (AstraZeneca AB, priority 2003, published 2006).

Legend:
[1] = biological target: T1, Aurora-A kinase (Homo sapiens, UniProt O14965); assay: In vitro Aurora-A kinase inhibition test; assay type: biochemical
T1 construct: 6 histidine tag with spacer region and rTEV protease cleavage site (pFastBac HTc) (N); made in house; host or cells: Spodoptera frugiperda Sf21 insect cells (baculovirus)
T1 sequence (O14965 1-403): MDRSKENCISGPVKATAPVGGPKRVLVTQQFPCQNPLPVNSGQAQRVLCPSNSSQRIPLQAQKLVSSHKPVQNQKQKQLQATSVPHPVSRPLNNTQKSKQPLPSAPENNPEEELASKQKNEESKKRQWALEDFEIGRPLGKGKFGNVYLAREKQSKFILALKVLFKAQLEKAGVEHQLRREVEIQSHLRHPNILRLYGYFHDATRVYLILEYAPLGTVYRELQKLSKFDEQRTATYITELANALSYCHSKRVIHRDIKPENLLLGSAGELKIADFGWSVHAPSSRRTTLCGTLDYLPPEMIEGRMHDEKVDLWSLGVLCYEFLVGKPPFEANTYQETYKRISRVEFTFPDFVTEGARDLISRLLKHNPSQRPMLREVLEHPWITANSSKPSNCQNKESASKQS

[2] = biological target: T2, Aurora-B kinase (Homo sapiens, UniProt Q96GD4); assay: In vitro Aurora-B kinase inhibition test; assay type: biochemical; conditions: recombinant Aurora-B, [γ33P]ATP, peptide substrate, 60 minutes room temperature; read-out: concentration giving 50% inhibition of enzyme activity
T2 construct: 6-histidine tag; made in house; host or cells: Spodoptera frugiperda Sf21 insect cells (baculovirus)
Description: (b) In Vitro Aurora-B Kinase Inhibition Test
This assay determines the ability of a test compound to inhibit serine-threonine kinase activity. DNA encoding Aurora-B may be obtained by total gene synthesis or by cloning. This DNA may then be expressed in a suitable expression system to obtain polypeptide with serine-threonine kinase activity. In the case of Aurora-B, the coding sequence was isolated from cDNA by polymerase chain reaction (PCR) and cloned into the pFastBac system in a manner similar to that described above for Aurora-A (i.e. to direct expression of a 6-histidine tagged Aurora-B protein).
For the large scale expression of Aurora-B kinase activity, Sf21 insect cells were grown at 28° C. in TC100 medium supplemented with 10% foetal calf serum (Viralex) and 0.2% F68 Pluronic (Sigma) on a Wheaton roller rig at 3 r.p.m. When the cell density reached 1.2×10^6 cells ml^−1 they were infected with plaque-pure Aurora-B recombinant virus at a multiplicity of infection of 1 and harvested 48 hours later. All subsequent purification steps were performed at 4° C. […]

T2 sequence (Q96GD4 whole entry): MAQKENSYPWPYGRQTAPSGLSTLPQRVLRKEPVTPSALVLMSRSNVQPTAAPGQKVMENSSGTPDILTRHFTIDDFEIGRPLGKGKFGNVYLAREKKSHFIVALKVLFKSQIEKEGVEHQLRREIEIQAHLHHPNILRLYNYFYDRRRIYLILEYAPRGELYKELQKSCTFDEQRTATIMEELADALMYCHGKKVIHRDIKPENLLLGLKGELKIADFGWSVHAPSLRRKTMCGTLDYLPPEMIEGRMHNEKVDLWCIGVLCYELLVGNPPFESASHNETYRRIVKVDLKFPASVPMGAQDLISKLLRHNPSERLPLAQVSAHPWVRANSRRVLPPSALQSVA

With COc1cc2c(Nc3cn(CC(=O)Nc4cccc(F)c4)nn3)ncnc2cc1OCCCCl [Compound 1, 2-(4-{[7-(3-chloropropoxy)-6-methoxyguinazolin-4-yl]amino}-1H-1,2,3-triazol-1-yl)-N-(3-fluorophenyl)acetamide] as the compound, how does the IC50 [1] read?
Its IC50 is 900 nM.

What about the IC50 [2] of the same compound?
Its IC50 is 100 nM.

Which IC50 [1] does the source give for CCCN(CCO)CCCOc1cc2ncnc(Nc3cn(CC(=O)Nc4cccc(F)c4)nn3)c2cc1OC [Compound 4, N-(3-fluorophenyl)-2-{4-[(7-{3-[(2-hydroxyethyl)(propyl)amino]propoxy}-6-methoxyquinazolin-4-yl)amino]-1H-1,2,3-triazol-1-yl}acetamide] here?
Its IC50 is 500 nM.

What about the IC50 [2] of the same compound?
The IC50 was 100 nM.
